Values quoted from earlier work as cited in patent US20240156991A1, “STABLE FORMULATIONS OF INDOCYANINE GREEN” (PROVEPHARM LIFE SOLUTIONS, priority 2021, published 2024).

reduction of absorbance at spectral peak (after 10 hours of storage in water and direct light): 10%
fluorescence intensity lost (stored at 4° C. in the dark, three days): 20%
SMILES: CC1(C)C(/C=C/C=C/C=C/C=C2\N(CCCCS(=O)(=O)O)c3ccc4ccccc4c3C2(C)C)=[N+](CCCCS(=O)(=O)O)c2ccc3ccccc3c21 [ICG, Indocyanine green]
